Data set [1] in a line: Highest frequency of moderate liver toxicity observed during clinical trials, expressed as a percentage. [column '% BIOL' in source]. As to conditions: human.
Data set [2] is described as follows: Highest frequency of acute liver toxicity observed during clinical trials, expressed as a percentage. [column '% AIGUE' in source]. The following applies: human.
A short description of data set [3]: Times to onset, minimal and maximal, observed in the indexed observations. [column 'DELAI' in source]. As to conditions: human.
The nature of data set [4]: Proposed mechanism(s) of liver damage. [column 'MEC' in source]. As to conditions: human.
The conditions of data set [5]: human, serum.
The conditions of data set [6]: human, serum. This is another data set of the same source.
For data set [7] the following is noted: human.
The conditions of data set [8]: human. This is another data set of the same source.
For data set [9] the following is noted: human. The source holds these as a separate data set.
For data set [10] the following is noted: human, serum, 4383 h.
The conditions of data set [11]: human. This is another data set of the same source.
For data set [12] the following is noted: human. This is another data set of the same source.
The conditions of data set [13]: human. This is another data set of the same source.
The conditions of data set [14]: human. The source holds these as a separate data set.
For data set [15] the following is noted: human. This is another data set of the same source.
For data set [16] the following is noted: human. The source holds these as a separate data set.

This is an account of results in ChEMBL document CHEMBL3137667, “[Drug-induced liver injury; fourteenth updated edition of the bibliographic database of liver injuries and related drugs]” (Gastroenterol Clin Biol, 2004).
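Wherever Hepatotoxicity (association with vascular disease) is given: count of indexed literature references reporting vascular liver injury in humans, e.g. peliosis hepatitis, hepatic veno-occlusive disease or Budd-Chiari syndrome.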
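Wherever Hepatotoxicity (benign tumour) is given: value is a count of indexed literature references citing a benign tumour confirmed by histopathology.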
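Wherever Hepatotoxicity (choleostasis) is given: human cholestatic liver injury, shown by histopathology or by peak ALT or AST elevation over alkaline phosphatase ratio below 2, value counts indexed literature reports.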
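Wherever Hepatotoxicity (chronic liver disease) is given: chronic liver injury confirmed by histopathology or persistently raised serum aminotransferase activity beyond 6 months, value given as the count of indexed literature references.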
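Wherever Hepatotoxicity (cirrhosis) is given: value is a count of indexed literature references reporting cirrhosis confirmed by histopathology.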
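Wherever Hepatotoxicity (cytolytic) is given: human cytolytic liver injury, shown by histopathology or by a ratio above 5 of peak ALT or AST elevation to alkaline phosphatase elevation, value counts indexed references.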
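Wherever Hepatotoxicity (granulomatous hepatitis) is given: value is a count of indexed literature references reporting granulomatous liver disease confirmed by histopathology.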
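Wherever Hepatotoxicity (malignant tumour) is given: malignant tumour confirmed by histopathology, value gives the count of indexed literature references reporting it.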
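Wherever Hepatotoxicity (severe hepatitis) is given: human clinical data: severe hepatitis, meaning potentially life-threatening liver failure or clinically observed cases, the value counts how many indexed literature references report it.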
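Wherever Hepatotoxicity (steatosis) is given: steatosis confirmed by histopathology, value is the count of indexed references.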

For `NC(=O)c1ncn([C@@H]2O[C@H](CO)[C@@H](O)[C@H]2O)n1` [RIBAVIRIN], the “Hepatotoxicity (moderate)” value came to 33% in data set [1] and 3 in data set [5]. The “Hepatotoxicity (acute)” value is on record as 0% in data set [2] and 2 in data set [6]. The “Hepatotoxicity (time to onset)” value in data set [3] stood at 11 weeks - 6 months. The “Hepatotoxicity (mechanism)” value in [4] is “Mitochondrial toxicity”. Also, the “Hepatotoxicity (cytolytic)” value in data set [7] was determined as 1. Besides, the “Hepatotoxicity (choleostasis)” value in data set [8] worked out at 1. Besides, the “Hepatotoxicity (severe hepatitis)” value in [9] stood at 1. Besides, the “Hepatotoxicity (chronic liver disease)” value in [10] was determined as 0. For the same compound, the “Hepatotoxicity (cirrhosis)” value in [11] is 0. The “Hepatotoxicity (granulomatous hepatitis)” value in data set [12] was determined as 0. Further, the “Hepatotoxicity (association with vascular disease)” value in data set [13] was found to be 0. Also, the “Hepatotoxicity (steatosis)” value in data set [14] was determined as 1. In [15], the “Hepatotoxicity (malignant tumour)” value is recorded as 0. Besides, in [16], the “Hepatotoxicity (benign tumour)” value is 0.

With `C[C@H](CCc1ccccc1)NC[C@H](O)c1ccc(O)c(C(N)=O)c1` [DILEVALOL], the “Hepatotoxicity (moderate)” value in [1] turned out to be 2%; in [5], 1. Besides, the “Hepatotoxicity (acute)” value in [2] worked out at 0%; in data set [6], 1. For the same compound, the “Hepatotoxicity (time to onset)” value in data set [3] worked out at 2 weeks. Further, the “Hepatotoxicity (mechanism)” value in data set [4] is recorded as “Allergic”. In addition, in data set [7], the “Hepatotoxicity (cytolytic)” value was found to be 1. In [8], the “Hepatotoxicity (choleostasis)” value worked out at 0. Also, in [9], the “Hepatotoxicity (severe hepatitis)” value stood at 1. Also, the “Hepatotoxicity (chronic liver disease)” value in [10] was 0. For the same compound, the “Hepatotoxicity (cirrhosis)” value in data set [11] is reported as 0. For the same compound, in data set [12], the “Hepatotoxicity (granulomatous hepatitis)” value is on record as 0. Moreover, in [13], the “Hepatotoxicity (association with vascular disease)” value is recorded as 0. Moreover, the “Hepatotoxicity (steatosis)” value in [14] was 0. In addition, in [15], the “Hepatotoxicity (malignant tumour)” value came to 0. Further, the “Hepatotoxicity (benign tumour)” value in [16] is recorded as 0.

On to `Cc1ccnc2c1NC(=O)c1cccnc1N2C1CC1` [NEVIRAPINE], for which the “Hepatotoxicity (moderate)” value was determined as 47.1% in data set [1] and 18 in [5]. Besides, the “Hepatotoxicity (acute)” value in data set [2] amounted to 37.5%; in data set [6], 49. In addition, the “Hepatotoxicity (time to onset)” value in data set [3] is given as 8 days - 3 years. Moreover, the “Hepatotoxicity (mechanism)” value in data set [4] is “Allergic”. Further, in [7], the “Hepatotoxicity (cytolytic)” value is on record as 29. For the same compound, the “Hepatotoxicity (choleostasis)” value in [8] was determined as 2. Besides, the “Hepatotoxicity (severe hepatitis)” value in data set [9] was 14. Besides, the “Hepatotoxicity (chronic liver disease)” value in [10] is on record as 0. In data set [11], the “Hepatotoxicity (cirrhosis)” value is on record as 0. Also, the “Hepatotoxicity (granulomatous hepatitis)” value in data set [12] was 0. For the same compound, the “Hepatotoxicity (association with vascular disease)” value in [13] is given as 0. Besides, the “Hepatotoxicity (steatosis)” value in data set [14] worked out at 0. Moreover, the “Hepatotoxicity (malignant tumour)” value in [15] stood at 0. Moreover, the “Hepatotoxicity (benign tumour)” value in data set [16] stood at 0.

As to `CN1C(=O)OC(C)(C)C1=O` [TRIMETHADIONE], the “Hepatotoxicity (moderate)” value was 0% in data set [1] and 1 in data set [5]. Also, the figures for the “Hepatotoxicity (acute)” value in [2] and in data set [6] were 0% and 3, respectively. Besides, in [3], the “Hepatotoxicity (time to onset)” value is listed as 2 weeks - 1 month. Besides, the “Hepatotoxicity (mechanism)” value in data set [4] is recorded as “Allergic”. In addition, in data set [7], the “Hepatotoxicity (cytolytic)” value is 1. In [8], the “Hepatotoxicity (choleostasis)” value is 0. Also, the “Hepatotoxicity (severe hepatitis)” value in data set [9] was 0. Moreover, the “Hepatotoxicity (chronic liver disease)” value in data set [10] is reported as 0. Also, the “Hepatotoxicity (cirrhosis)” value in data set [11] stood at 0. For the same compound, the “Hepatotoxicity (granulomatous hepatitis)” value in data set [12] is on record as 0. The “Hepatotoxicity (association with vascular disease)” value in data set [13] is 0. Further, the “Hepatotoxicity (steatosis)” value in data set [14] stood at 0. Further, the “Hepatotoxicity (malignant tumour)” value in data set [15] was 0. The “Hepatotoxicity (benign tumour)” value in [16] was 0.

On to `CO/N=C(\C(=O)N[C@@H]1C(=O)N2C(C(=O)O)=C(COC(N)=O)CS[C@H]12)c1ccco1` [CEFUROXIME], for which the “Hepatotoxicity (moderate)” value in [1] was 29.1%; in [5], 8. Besides, the “Hepatotoxicity (acute)” value in data set [2] stood at 0%; in data set [6], 1. Also, the “Hepatotoxicity (time to onset)” value in data set [3] was 2 days. For the same compound, the “Hepatotoxicity (mechanism)” value in data set [4] is on record as “Allergic”. The “Hepatotoxicity (cytolytic)” value in data set [7] is given as 1. The “Hepatotoxicity (choleostasis)” value in [8] is 0. The “Hepatotoxicity (severe hepatitis)” value in data set [9] amounted to 1. Further, in data set [10], the “Hepatotoxicity (chronic liver disease)” value was determined as 0. The “Hepatotoxicity (cirrhosis)” value in data set [11] turned out to be 0. In [12], the “Hepatotoxicity (granulomatous hepatitis)” value came to 0. Besides, the “Hepatotoxicity (association with vascular disease)” value in data set [13] is listed as 0. For the same compound, the “Hepatotoxicity (steatosis)” value in data set [14] came to 0. Further, in data set [15], the “Hepatotoxicity (malignant tumour)” value was found to be 0. In addition, in data set [16], the “Hepatotoxicity (benign tumour)” value is 0.

For `Cc1cc(CC(=O)O)n(C)c1C(=O)c1ccc(Cl)cc1` [ZOMEPIRAC], the “Hepatotoxicity (moderate)” value was found to be 1.7% in [1] and 2 in [5]. For the same compound, the “Hepatotoxicity (acute)” value in data set [2] was found to be 0%; in [6], 0. Also, the “Hepatotoxicity (time to onset)” value in data set [3] is listed as 2 weeks. Besides, in data set [4], the “Hepatotoxicity (mechanism)” value is reported as “Allergic”. Also, in data set [7], the “Hepatotoxicity (cytolytic)” value came out at 0. In addition, the “Hepatotoxicity (choleostasis)” value in data set [8] turned out to be 0. For the same compound, in data set [9], the “Hepatotoxicity (severe hepatitis)” value was 0. Further, in data set [10], the “Hepatotoxicity (chronic liver disease)” value is on record as 0. Also, the “Hepatotoxicity (cirrhosis)” value in data set [11] amounted to 0. Further, the “Hepatotoxicity (granulomatous hepatitis)” value in [12] is recorded as 0. The “Hepatotoxicity (association with vascular disease)” value in [13] was determined as 0. Besides, in [14], the “Hepatotoxicity (steatosis)” value is given as 0. Besides, the “Hepatotoxicity (malignant tumour)” value in [15] is recorded as 0. Moreover, the “Hepatotoxicity (benign tumour)” value in [16] is listed as 0.

For `CN(C)[C@@H]1C(O)=C(C(N)=O)C(=O)[C@@]2(O)C(O)=C3C(=O)c4c(O)cccc4[C@@](C)(O)[C@H]3[C@H](O)[C@@H]12` [OXYTETRACYCLINE], the “Hepatotoxicity (moderate)” value in [1] amounted to 60%; in data set [5], 1. In addition, the figures for the “Hepatotoxicity (acute)” value in data set [2] and in [6] were 0% and 2, respectively. Further, in data set [3], the “Hepatotoxicity (time to onset)” value is reported as 5 days - 3 weeks. In [4], the “Hepatotoxicity (mechanism)” value is “Dose-dependant”. Further, the “Hepatotoxicity (cytolytic)” value in [7] is listed as 0. In addition, the “Hepatotoxicity (choleostasis)” value in data set [8] was determined as 2. The “Hepatotoxicity (severe hepatitis)” value in data set [9] came to 1. Moreover, the “Hepatotoxicity (chronic liver disease)” value in [10] was 0. In [11], the “Hepatotoxicity (cirrhosis)” value came out at 0. Besides, the “Hepatotoxicity (granulomatous hepatitis)” value in data set [12] stood at 0. Besides, the “Hepatotoxicity (association with vascular disease)” value in data set [13] is listed as 0. Also, the “Hepatotoxicity (steatosis)” value in [14] is reported as 4. For the same compound, in data set [15], the “Hepatotoxicity (malignant tumour)” value was 0. In addition, the “Hepatotoxicity (benign tumour)” value in data set [16] is 0.

As for `CC(C)[C@@H](CC[C@@H](C)[C@H]1CC[C@H]2[C@@H]3[C@H](O)C[C@H]4C[C@@H](NCCCNCCCCN)CC[C@]4(C)[C@H]3CC[C@]12C)OS(=O)(=O)O` [SQUALAMINE], the figures for the “Hepatotoxicity (moderate)” value in data set [1] and in data set [5] were 0% and 1, respectively. Moreover, the “Hepatotoxicity (acute)” value in data set [2] is 38.5%; in data set [6], 2. The “Hepatotoxicity (time to onset)” value in data set [3] is 2 days - 5 days. For the same compound, the “Hepatotoxicity (mechanism)” value in [4] was “Dose-dependant”. Moreover, the “Hepatotoxicity (cytolytic)” value in [7] was 2. The “Hepatotoxicity (choleostasis)” value in data set [8] stood at 1. For the same compound, in data set [9], the “Hepatotoxicity (severe hepatitis)” value came out at 0. Further, the “Hepatotoxicity (chronic liver disease)” value in data set [10] was 0. Besides, the “Hepatotoxicity (cirrhosis)” value in data set [11] is on record as 0. Further, the “Hepatotoxicity (granulomatous hepatitis)” value in [12] is 0. Besides, the “Hepatotoxicity (association with vascular disease)” value in data set [13] is recorded as 0. The “Hepatotoxicity (steatosis)” value in data set [14] is 0. Also, the “Hepatotoxicity (malignant tumour)” value in data set [15] was found to be 0. Besides, in data set [16], the “Hepatotoxicity (benign tumour)” value came out at 0.

`O=c1[nH]c2ccccc2n1CCCN1CCN(C(c2ccccc2)c2ccccc2)CC1` [OXATOMIDE]: the entries for the “Hepatotoxicity (moderate)” value in data set [1] and in data set [5] were 8.3% and 2, respectively. Besides, the “Hepatotoxicity (acute)” value in data set [2] stood at 0%; in [6], 4. Besides, in data set [3], the “Hepatotoxicity (time to onset)” value stood at 10 days - 3 months. Further, in [4], the “Hepatotoxicity (mechanism)” value is “Allergic”. The “Hepatotoxicity (cytolytic)” value in [7] stood at 3. The “Hepatotoxicity (choleostasis)” value in data set [8] was 2. Also, in [9], the “Hepatotoxicity (severe hepatitis)” value came to 0. Besides, the “Hepatotoxicity (chronic liver disease)” value in data set [10] is 0. Further, the “Hepatotoxicity (cirrhosis)” value in data set [11] is given as 0. The “Hepatotoxicity (granulomatous hepatitis)” value in data set [12] is recorded as 0. The “Hepatotoxicity (association with vascular disease)” value in data set [13] was determined as 0. Moreover, in data set [14], the “Hepatotoxicity (steatosis)” value came out at 0. In data set [15], the “Hepatotoxicity (malignant tumour)” value stood at 0. The “Hepatotoxicity (benign tumour)” value in data set [16] amounted to 0.

`CC1=C(/C=C/C(C)=C/C=C/C(C)=C\C(=O)O)C(C)(C)CCC1` [ISOTRETINOIN]: the “Hepatotoxicity (moderate)” value in data set [1] was determined as 44.4%; in data set [5], 35. The “Hepatotoxicity (acute)” value in data set [2] came to 8.8%; in data set [6] it was 3. Further, the “Hepatotoxicity (time to onset)” value in data set [3] is 4 months. The “Hepatotoxicity (mechanism)” value in data set [4] is “Dose-dependant”. For the same compound, the “Hepatotoxicity (cytolytic)” value in data set [7] is reported as 1. For the same compound, the “Hepatotoxicity (choleostasis)” value in [8] is 0. Moreover, the “Hepatotoxicity (severe hepatitis)” value in data set [9] was 0. Moreover, the “Hepatotoxicity (chronic liver disease)” value in data set [10] is on record as 0. Besides, the “Hepatotoxicity (cirrhosis)” value in [11] amounted to 0. Also, in data set [12], the “Hepatotoxicity (granulomatous hepatitis)” value came out at 0. In data set [13], the “Hepatotoxicity (association with vascular disease)” value worked out at 0. Further, the “Hepatotoxicity (steatosis)” value in data set [14] is reported as 1. Also, the “Hepatotoxicity (malignant tumour)” value in data set [15] came to 0. For the same compound, the “Hepatotoxicity (benign tumour)” value in data set [16] is on record as 0.
